Test results taken from ChEMBL document CHEMBL5154798, “Structure-based discovery of receptor tyrosine kinase AXL degraders with excellent anti-tumor activity by selectively degrading AXL and inducing methuosis” (Eur J Med Chem, 2022).
pIC50: −log10 of the molar value. Activity calls are given as the source filed them. The rule behind the calls is not given here.

Experiments:
[1] = Half-life in male Sprague-Dawley rat at 2 mg/kg, iv administered as single dose measured by LC/MS/MS analysis; assay type: ADME, organism-based; conditions: in vivo
[2] = Tmax in male Sprague-Dawley rat at 2 mg/kg, iv administered as single dose measured by LC/MS/MS analysis; assay type: ADME, organism-based; conditions: in vivo
[3] = Half-life in male Sprague-Dawley rat at 20 mg/kg, po administered as single dose measured by LC/MS/MS analysis; assay type: ADME, organism-based; conditions: in vivo
[4] = Cmax in male Sprague-Dawley rat at 2 mg/kg, iv administered as single dose measured by LC/MS/MS analysis; assay type: ADME, organism-based; parameters: dose 2 mg/kg, route iv; conditions: in vivo
[5] = Tmax in male Sprague-Dawley rat at 20 mg/kg, po administered as single dose measured by LC/MS/MS analysis; assay type: ADME, organism-based; conditions: in vivo
[6] = Clearance in male Sprague-Dawley rat at 2 mg/kg, iv administered as single dose measured by LC/MS/MS analysis; assay type: ADME, organism-based; conditions: male, Sprague-Dawley, in vivo
[7] = Systemic toxicity in female BALB/c nude mouse xenografted with human MDA-MB-231 cells assessed as inflammatory cell infiltration in lung at 25 mg/kg, ip; assay type: organism-based; conditions: in vivo
[8] = Systemic toxicity in female BALB/c nude mouse xenografted with human MDA-MB-231 cells assessed as inflammatory cell infiltration in spleen at 25 mg/kg, ip; assay type: organism-based; conditions: in vivo
[9] = Systemic toxicity in female BALB/c nude mouse xenografted with human MDA-MB-231 cells assessed as inflammatory cell infiltration in heart at 25 mg/kg, ip; assay type: organism-based; conditions: in vivo
[10] = Systemic toxicity in female BALB/c nude mouse xenografted with human MDA-MB-231 cells assessed as necrosis of heart tissue at 25 mg/kg, ip; assay type: organism-based; conditions: in vivo
MDA-MB-231 [11] = assay: Induction of cytoplasmic vacuolation in human MDA-MB-231 cells at 0.5 uM; assay type: functional, cell-based
[12] = Systemic toxicity in female BALB/c nude mouse xenografted with human MDA-MB-231 cells assessed as necrosis of spleen tissue at 25 mg/kg, ip; assay type: organism-based; conditions: in vivo
[13] = Oral bioavailability in male Sprague-Dawley rat at 20 mg/kg administered as single dose measured by LC/MS/MS analysis; assay type: ADME, organism-based; conditions: in vivo
MDA-MB-231 [14] = assay: Induction of macropinocytosis in human MDA-MB-231 cells assessed as co-localization of LAMP-1 with lucifer yellow measured by immunofluorescence assay; assay type: functional, cell-based
[15] = Cytotoxicity against human MCF-10A cells after 72 hrs by MTT assay; assay type: toxicity, cell-based
Mus musculus = assay: In vivo induction of CRBN-mediated AXL degradation in mouse measured after 6 hrs; assay type: functional, organism-based
[16] = AUC (0 to t) in male Sprague-Dawley rat at 20 mg/kg, po administered as single dose measured by LC/MS/MS analysis; assay type: ADME, organism-based; parameters: dose 20 mg/kg, route po; conditions: in vivo
[17] = Systemic toxicity in female BALB/c nude mouse xenografted with human MDA-MB-231 cells assessed as inflammatory cell infiltration in kidney at 25 mg/kg, ip; assay type: organism-based; conditions: in vivo
[18] = Systemic toxicity in female BALB/c nude mouse xenografted with human MDA-MB-231 cells assessed as necrosis of liver tissue at 25 mg/kg, ip; assay type: organism-based; conditions: in vivo
[19] = Systemic toxicity in female BALB/c nude mouse xenografted with human MDA-MB-231 cells assessed as necrosis of kidney tissue at 25 mg/kg, ip; assay type: organism-based; conditions: in vivo
[20] = Cmax in male Sprague-Dawley rat at 20 mg/kg, po administered as single dose measured by LC/MS/MS analysis; assay type: ADME, organism-based; parameters: dose 20 mg/kg, route po; conditions: in vivo
MDA-MB-231 [21] = assay: Induction of macropinocytosis in human MDA-MB-231 cells assessed as co-localization of Rab7 with lucifer yellow measured by immunofluorescence assay; assay type: functional, cell-based
[22] = AUC (0 to t) in male Sprague-Dawley rat at 2 mg/kg, iv administered as single dose measured by LC/MS/MS analysis; assay type: ADME, organism-based; parameters: dose 2 mg/kg, route iv; conditions: in vivo
MDA-MB-231 [23] = assay: Antitumor activity against human MDA-MB-231 cells xenografted in female BALB/c nude mouse assessed as tumor growth inhibition at 25 mg/kg, ip; assay type: functional, organism-based
MDA-MB-231 [24] = assay: Induction of macropinocytosis in human MDA-MB-231 cells measured by MitoTracker staining based fluorescence microscopy; assay type: functional, cell-based
MDA-MB-231 [25] = assay: Induction of macropinocytosis in human MDA-MB-231 cells measured by LysoTracker staining based fluorescence microscopy; assay type: functional, cell-based
[26] = Systemic toxicity in female BALB/c nude mouse xenografted with human MDA-MB-231 cells assessed as inflammatory cell infiltration in liver at 25 mg/kg, ip; assay type: organism-based; conditions: in vivo
[27] = Toxicity in female BALB/c nude mouse xenografted with human MDA-MB-231 cells assessed as change in body wieght at 25 mg/kg, ip; assay type: organism-based; conditions: in vivo
[28] = Cytotoxicity against human GES1 cells after 72 hrs by MTT assay; assay type: toxicity, cell-based
4T1 [29] = assay: Induction of cytoplasmic vacuolation in mouse 4T1 cells at 0.5 uM; assay type: functional, cell-based
MDA-MB-231 [30] = assay: Antiproliferative activity against human MDA-MB-231 cells highly expressing AXL after 72 hrs by MTT assay; conditions: MDA-MB-231, 72 h
4T1 [31] = assay: Antiproliferative activity against mouse 4T1 cells highly expressing AXL after 72 hrs by MTT assay; conditions: 4T1, 72 h
MDA-MB-231 [32] = assay: Induction of cytoplasmic vacuolation in human MDA-MB-231 cells at 1 uM in presence of 1 uM pan-caspase inhibitor Z-VAD-FMK; assay type: functional, cell-based
[33] = Systemic toxicity in female BALB/c nude mouse xenografted with human MDA-MB-231 cells assessed as necrosis of lung tissue at 25 mg/kg, ip; assay type: organism-based; conditions: in vivo

- t1/2 [1]: 0.72 h
- Tmax [2]: 0.54 h
- half-life [3]: 2.37 h
- Cmax [4]: 166 ng/mL
- Tmax [5]: 1.89 h
- clearance [6]: 11.3 mL/min/kg
- bioavailability [13]: 4.93%
- AUC(0-t) [16]: 865 ng·h/mL
- Cmax [20]: 92 ng/mL
- AUCt [22]: 2933.4 ng·h/mL
- pIC50 (MDA-MB-231 [30]): 4.99
- pIC50 (4T1 [31]): 5.26
SMILES: Nc1nc(Nc2ccc(CNC(=O)CCCCCCCNc3cccc4c3CN(C3CCC(=O)NC3=O)C4=O)cc2)nn1-c1ccc(-c2ccccc2)nn1 (centres undefined)
- Activity [7]: Non-Toxic
- Activity [8]: Non-Toxic
- Activity [9]: Non-Toxic
- Activity [10]: Non-Toxic
- Activity (MDA-MB-231 [11]): Active
- Activity [12]: Non-Toxic
- Activity (MDA-MB-231 [14]): Active
- IC50 at 72 h [15]: > 60 µM
- Activity (Mus musculus): Active
- Activity [17]: Non-Toxic
- Activity [18]: Non-Toxic
- Activity [19]: Non-Toxic
- Activity (MDA-MB-231 [21]): Active
- TGI (MDA-MB-231 [23]): Active
- Activity (MDA-MB-231 [24]): Active
- Activity (MDA-MB-231 [25]): Active
- Activity [26]: Non-Toxic
- Activity [27]: Non-Toxic
- IC50 at 72 h [28]: > 60 µM
- Activity (4T1 [29]): Active
- Activity (MDA-MB-231 [32]): Active
- Activity [33]: Non-Toxic
